Calls of active or inactive are those of the source.
Legend:
[1] = molecular target: T1, RNA-binding protein pos-1 (Caenorhabditis elegans, UniProt G5EF15); test: disruptors of C. elegans POS-1 RNA interaction – biochemical, fluorescence polarization, dose response (AID 1964);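 also: purified POS-1 fused to maltose binding protein made in E. coli; potency of compounds blocking POS-1 binding to fluorescent RNA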
T1 sequence (G5EF15 whole entry): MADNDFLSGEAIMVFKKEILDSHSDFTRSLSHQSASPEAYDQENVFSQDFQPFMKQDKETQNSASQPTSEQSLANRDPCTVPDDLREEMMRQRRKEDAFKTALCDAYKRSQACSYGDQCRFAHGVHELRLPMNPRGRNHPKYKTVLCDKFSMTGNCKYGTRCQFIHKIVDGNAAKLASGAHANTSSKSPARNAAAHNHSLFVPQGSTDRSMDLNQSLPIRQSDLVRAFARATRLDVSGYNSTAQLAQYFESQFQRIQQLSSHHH

[2] = molecular target: T2, Zinc finger protein mex-5 (Caenorhabditis elegans, UniProt Q9XUB2); test: potency of MEX-5 RNA-binding blockers – biochemical, C. elegans, fluorescence polarization, dose response (AID 1960)
T2 sequence (Q9XUB2 whole entry): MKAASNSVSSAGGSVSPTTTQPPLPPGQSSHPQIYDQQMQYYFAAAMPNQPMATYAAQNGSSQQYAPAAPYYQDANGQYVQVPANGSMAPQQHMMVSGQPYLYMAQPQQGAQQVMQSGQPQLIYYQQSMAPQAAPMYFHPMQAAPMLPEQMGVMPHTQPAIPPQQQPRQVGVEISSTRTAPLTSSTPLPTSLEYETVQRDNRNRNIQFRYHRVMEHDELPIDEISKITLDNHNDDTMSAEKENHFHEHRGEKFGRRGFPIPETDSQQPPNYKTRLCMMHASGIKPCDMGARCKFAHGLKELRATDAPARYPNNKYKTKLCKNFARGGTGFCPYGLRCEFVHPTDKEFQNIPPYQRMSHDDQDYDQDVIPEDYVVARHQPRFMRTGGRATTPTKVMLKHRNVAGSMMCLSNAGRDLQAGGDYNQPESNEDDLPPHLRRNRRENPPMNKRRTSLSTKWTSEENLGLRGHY

[3] = molecular target: T3, Sentrin-specific protease 1 (Homo sapiens, UniProt Q9P0U3); test: SENP1 catalytic domain blockers, concentration series – biochemical, kinetic FRET, dose response (AID 651697); assay type: functional; conditions: read-out: IC50_Mean
T3 sequence (Q9P0U3 whole entry, the tested form may be a part): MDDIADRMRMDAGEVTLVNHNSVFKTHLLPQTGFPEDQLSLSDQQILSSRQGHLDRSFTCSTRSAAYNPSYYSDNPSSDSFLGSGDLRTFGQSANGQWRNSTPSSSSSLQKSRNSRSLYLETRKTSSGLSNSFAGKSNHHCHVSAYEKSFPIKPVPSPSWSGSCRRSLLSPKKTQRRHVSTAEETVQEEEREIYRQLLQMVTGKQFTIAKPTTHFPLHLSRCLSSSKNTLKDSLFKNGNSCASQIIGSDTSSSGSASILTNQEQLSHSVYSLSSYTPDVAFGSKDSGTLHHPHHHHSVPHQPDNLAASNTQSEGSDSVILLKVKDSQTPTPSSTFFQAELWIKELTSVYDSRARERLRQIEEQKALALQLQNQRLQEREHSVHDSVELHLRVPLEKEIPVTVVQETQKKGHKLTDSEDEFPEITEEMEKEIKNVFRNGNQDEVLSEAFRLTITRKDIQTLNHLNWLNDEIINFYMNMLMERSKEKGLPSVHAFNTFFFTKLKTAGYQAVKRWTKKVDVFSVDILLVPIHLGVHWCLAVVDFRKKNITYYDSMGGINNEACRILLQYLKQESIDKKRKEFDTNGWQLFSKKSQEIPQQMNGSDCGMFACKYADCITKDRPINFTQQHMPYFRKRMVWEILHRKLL

[4] = molecular target: T3, Sentrin-specific protease 1; test: Dose response confirmation of small molecule inhibitors of the catalytic domain of the SUMO protease, SENP1 in a FRET assay.; assay type: functional; conditions: read-out: IC50_Mean
[5] = molecular target: T4, Rac GTPase-activating protein 1 (Homo sapiens, UniProt Q9H0H5); test: blockers of MgcRacGAP-driven Rac1 GTP hydrolysis – biochemical, ADP Hunter fluorescence, primary and confirmatory, confirmation (AID 624330); assay type: functional
T4 sequence (Q9H0H5 whole entry): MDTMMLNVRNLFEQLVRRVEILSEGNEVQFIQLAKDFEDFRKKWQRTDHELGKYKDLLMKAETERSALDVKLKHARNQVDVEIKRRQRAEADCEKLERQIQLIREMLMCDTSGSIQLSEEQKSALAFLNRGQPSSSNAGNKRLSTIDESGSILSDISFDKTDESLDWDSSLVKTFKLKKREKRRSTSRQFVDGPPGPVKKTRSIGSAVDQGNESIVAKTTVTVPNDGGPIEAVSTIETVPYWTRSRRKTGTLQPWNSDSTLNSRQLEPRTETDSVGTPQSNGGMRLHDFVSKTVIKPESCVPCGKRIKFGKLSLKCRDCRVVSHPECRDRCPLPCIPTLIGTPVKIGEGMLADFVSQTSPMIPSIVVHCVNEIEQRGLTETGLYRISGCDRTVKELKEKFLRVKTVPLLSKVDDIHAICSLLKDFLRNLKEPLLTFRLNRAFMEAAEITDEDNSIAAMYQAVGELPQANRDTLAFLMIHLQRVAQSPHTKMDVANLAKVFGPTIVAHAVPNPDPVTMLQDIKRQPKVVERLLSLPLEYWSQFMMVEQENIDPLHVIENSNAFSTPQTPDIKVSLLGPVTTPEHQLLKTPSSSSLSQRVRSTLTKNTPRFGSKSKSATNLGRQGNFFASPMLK

EC50 [1]: 43.9 µM (active)
EC50 [2]: 59.3 µM (active)
IC50 [3]: 29 µM (inactive)
IC50 [4]: 42.4 µM (inactive)
IC50 [5]: 22.1 µM (active)
Compound: CC1(C)CC2=Nc3ccccc3SC2=C(O)C1

From ChEMBL document CHEMBL1201862, “PubChem BioAssay data set” (2004)
